Test results: article PMC7668422 (Anesthesia and analgesia, 2020)

Key:
KOR = details: no reference given; cited from earlier work
[1] = cited from earlier work
[2] = biological target: mKOR-tdTomato fusion protein in Neuro2A cells (Mus musculus, UniProt P33534); experiment: KOR internalization in N2A-mKOR-tdT cells, fluorescence microscopy; format: cell-based
human KOR [3] = biological target: T1, human KOR (Homo sapiens, UniProt P41145); experiment: biochemical; format: biochemical
Target sequence in this assay (P41145 whole entry): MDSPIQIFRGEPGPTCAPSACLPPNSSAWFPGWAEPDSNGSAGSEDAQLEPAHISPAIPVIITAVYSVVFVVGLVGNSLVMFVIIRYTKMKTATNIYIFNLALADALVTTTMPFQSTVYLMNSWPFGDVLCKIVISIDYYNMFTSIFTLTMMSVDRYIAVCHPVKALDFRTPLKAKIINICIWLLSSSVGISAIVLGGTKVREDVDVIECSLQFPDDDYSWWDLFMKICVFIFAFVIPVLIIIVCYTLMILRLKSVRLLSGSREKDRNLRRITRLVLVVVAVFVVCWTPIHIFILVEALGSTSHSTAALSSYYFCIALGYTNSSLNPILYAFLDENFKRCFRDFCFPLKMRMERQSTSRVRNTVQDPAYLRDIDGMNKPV
Target sequence in this assay (P63096 2-354 partner limits assumed): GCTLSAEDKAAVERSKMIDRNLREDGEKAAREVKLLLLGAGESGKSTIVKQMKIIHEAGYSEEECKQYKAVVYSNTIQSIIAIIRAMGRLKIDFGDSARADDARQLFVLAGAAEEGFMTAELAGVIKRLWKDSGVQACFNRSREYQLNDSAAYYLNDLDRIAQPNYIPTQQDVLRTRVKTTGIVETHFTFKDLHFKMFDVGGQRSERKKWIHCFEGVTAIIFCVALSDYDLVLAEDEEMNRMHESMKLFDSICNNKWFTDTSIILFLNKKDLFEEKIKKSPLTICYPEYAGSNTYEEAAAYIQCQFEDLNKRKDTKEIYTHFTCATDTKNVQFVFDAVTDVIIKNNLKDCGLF
Target sequence in this assay (P62873 2-340 partner limits assumed): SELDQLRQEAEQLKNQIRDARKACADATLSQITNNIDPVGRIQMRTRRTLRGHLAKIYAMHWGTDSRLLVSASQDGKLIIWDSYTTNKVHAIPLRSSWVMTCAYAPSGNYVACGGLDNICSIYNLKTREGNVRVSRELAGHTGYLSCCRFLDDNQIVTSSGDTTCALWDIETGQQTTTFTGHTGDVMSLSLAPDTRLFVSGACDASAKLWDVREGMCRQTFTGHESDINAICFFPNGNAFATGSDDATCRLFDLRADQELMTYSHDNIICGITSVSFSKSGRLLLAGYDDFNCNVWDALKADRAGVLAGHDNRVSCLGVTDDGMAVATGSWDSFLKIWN
Target sequence in this assay (P59768 2-68 partner limits assumed): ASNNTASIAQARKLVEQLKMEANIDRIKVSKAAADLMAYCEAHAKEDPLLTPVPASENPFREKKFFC

μ-opioid receptor (MOR) [4] = biological target: T2, μ-opioid receptor (MOR) (Homo sapiens, UniProt P35372); experiment: Affinity for the μ-opioid receptor; format: binding; details: mean ± SD; no method described
T2 sequence (P35372 whole entry, species assumed): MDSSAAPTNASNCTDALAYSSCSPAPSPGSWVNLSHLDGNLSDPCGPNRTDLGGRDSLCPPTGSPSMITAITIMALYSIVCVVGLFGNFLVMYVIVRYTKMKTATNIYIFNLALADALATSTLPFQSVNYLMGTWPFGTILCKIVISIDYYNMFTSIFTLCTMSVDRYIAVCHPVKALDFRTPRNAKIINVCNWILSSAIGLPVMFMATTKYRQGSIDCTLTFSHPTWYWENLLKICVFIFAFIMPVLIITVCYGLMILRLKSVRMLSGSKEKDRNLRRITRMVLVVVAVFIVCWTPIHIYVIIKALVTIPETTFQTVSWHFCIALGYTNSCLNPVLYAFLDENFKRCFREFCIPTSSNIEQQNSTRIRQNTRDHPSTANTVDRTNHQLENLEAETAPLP

κ-opioid receptor (KOR) = κ-opioid receptor (KOR) (Homo sapiens, UniProt P41145); experiment: biochemical; format: binding
κ-opioid receptor (KOR), sequence (P41145 whole entry): as the sequence (P41145 whole entry) above

μ-opioid receptor (MOR) [5] = biological target: T2, μ-opioid receptor (MOR); details: cited from earlier work
human KOR [6] = biological target: T1, human KOR; format: cell-based
Target sequence in this assay (P41145 whole entry): as above

mKOR-tdTomato fusion protein in Neuro2A cells, sequence (P33534 whole entry, the tested form may be a part): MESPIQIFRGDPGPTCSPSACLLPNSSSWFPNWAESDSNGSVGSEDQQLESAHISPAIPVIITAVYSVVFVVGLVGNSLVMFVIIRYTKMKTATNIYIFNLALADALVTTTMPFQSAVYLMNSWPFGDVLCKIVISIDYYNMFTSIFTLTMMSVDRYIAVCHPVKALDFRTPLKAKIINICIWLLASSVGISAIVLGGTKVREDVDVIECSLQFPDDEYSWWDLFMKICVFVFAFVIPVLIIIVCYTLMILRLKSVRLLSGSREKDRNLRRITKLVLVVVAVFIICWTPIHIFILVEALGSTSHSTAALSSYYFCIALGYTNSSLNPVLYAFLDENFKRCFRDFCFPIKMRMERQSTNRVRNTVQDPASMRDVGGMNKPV

For `CC(C)[C@@H](CN1CC[C@@](C)(c2cccc(O)c2)[C@@H](C)C1)NC(=O)[C@H]1Cc2ccc(O)cc2CN1` [JDTic], the “agonistic activity at KOR” value (KOR) is listed as “no agonistic activity”.
For `Oc1ccc2c(c1)[C@@]13CCCC[C@@]1(O)[C@@H](C2)N(CC1CCC1)CC3` [butorphanol], the “analgesic potency relative to morphine” value ([1]; clinical trial for perioperative pain management) is given as roughly 6 times, the “potency relative to morphine” value ([1]; discussion statement, no reference given) is given as 5–7 fold and the KOR internalization ([2]; butorphanol 0.1 μM to 8 μM, from 5 min) is given as “KOR internalization was observed”. For the same compound, the EC50 (human KOR [3]) was 2.8 nM, the “agonist character, G protein activation pathway” value (human KOR [3]) was “partial, high affinity agonist” and the “maximal G protein activation relative to salvinorin A” value (human KOR [3]) was “about 50%”. The “affinity for the μ-opioid receptor” value (μ-opioid receptor (MOR) [4]) was 2.4 ± 1.2 nM, the Kd (κ-opioid receptor (KOR)) was 0.1 ± 0.02 nM and the Ki (κ-opioid receptor (KOR)) was 0.1 ± 0.02 nM. The “affinity for KOR relative to μ-opioid receptor” value (κ-opioid receptor (KOR)) was “about twenty-fold”, the “agonist character at MOR” value (μ-opioid receptor (MOR) [5]) was “partial μ-opioid receptor (MOR) agonist” and the “agonist character, β-arrestin recruitment pathway” value (human KOR [6]) was “full agonist”.
With `C[C@@]12CCCCC[C@@H](Cc3ccc(O)cc31)[C@@H]2N` [dezocine] the “effect on butorphanol-induced KOR internalization” value ([2]; 2 μM dezocine co-incubated with 0.4 μM butorphanol for 30 min) was “abolish the KOR internalization” and the Ki (κ-opioid receptor (KOR)) was 56 ± 2 nM.
With `COC(=O)[C@@H]1C[C@H](OC(C)=O)C(=O)[C@H]2[C@@]1(C)CC[C@H]1C(=O)O[C@H](c3ccoc3)C[C@]21C` [salvinorin A] the “agonist character, G protein activation pathway” value (human KOR [3]) was “full agonist” and the “concentration giving full activation of the receptor” value (human KOR [3]) was “above 1 μM”.
